In publication PMC10199020 (Nature Communications, 2023):

Assays:
[1] = molecular target: T1, NL-IL23R and IL12Rβ1 (IL-23 receptor) on HEK293T cells (Homo sapiens, UniProt P42701+Q5VWK5); assay: IL23-TMR NanoBRET competition assay; assay type: binding; conditions: 300 pM IL23-TMR
T1 construct: expressed in transfected cells; host or cells: HEK293T (ATCC CRL-3216), transient transfection
Description: Schematic created with Biorender.com. IL23R is shown in orange, IL12Rβ1 in purple, IL23p19 in blue, IL12p40 in green and the presence of a TAMRA fluorophore by a pink star. […] In b and c, data are mean ± SEM from 5 independent experiments conducted in either duplicate or triplicate. Details on absolute number of data points included for each concentration are provided in the associated Source Data file.
(§1) Transient transfections for experiments outlined in Fig. 6 were conducted by seeding 100 μL of 2 × 10^5 cells/ml concentrated HEK293T cells into poly-D-lysine (PDL) coated white 96 well clear bottom assay microplates (Greiner) and incubating overnight. The following day transfection mixes were made up that contained a 4:1 ratio of IL23R to IL12Rβ1 constructs to a total concentration of 100 ng per well with a 0.3 μL per well of FuGENE HD transfection reagent (Promega) in OptiMEM (Gibco). These mixtures were incubated for 10 min before being added to the plate at 5 μL per well. The cells were then incubated overnight to allow expression. For all other experiments 2 mL containing 4 × 10^5 cells were seeded into 6 well plates and incubated 5 h before being transiently transfected with 100 μL per well of a transfection mix containing 2 μg of DNA and 6 μL of FuGENE HD. These cells were then incubated overnight before being re-suspended the following day and seeded into PDL coated white assay microplates at 100 μL containing 3 × 10^4 transfected cells. Cells were then incubated overnight before the experiment. Estimates of total expression levels for the different NL-constructs were made by comparing the luminescence levels achieved to that of a NanoLuciferase standard curve measured under the same conditions (Supplementary Fig. 1).
Media was removed from white 96-well microplates containing transfected cells and replaced with fluoroprobe in the presence or absence of antagonist in 50 μL Hanks Balanced Salt Solution (HBSS) with 1 mg/mL BSA (Merck).
(§2) Antagonist competition data were fit with the equation:4 Y=Bmin+Bmax−Bmin/1+10^(LogXC50−[A])C Where ‘Bmax’ is the maximum BRET signal, ‘Bmin’ is the minimum BRET signal, ‘LogXC50’ is the log of the 50% inhibiting concentration of antagonist, ‘[A]’ is the concentration of antagonist and ‘C’ is the Hill slope.

[2] = molecular target: T1, NL-IL23R and IL12Rβ1 (IL-23 receptor) on HEK293T cells; assay: P630-TMR NanoBRET competition assay; assay type: binding; conditions: Fig. 5a
Description: as §1
Media was removed from white 96-well microplates containing transfected cells and replaced with fluoroprobe in the presence or absence of antagonist in 50 μL Hanks Balanced Salt Solution (HBSS) with 1 mg/mL BSA (Merck). After a 1-hour incubation at 37 °C without CO2, 5 μL of HBSS containing 77 μM furimizine was added to each well (final concentration 7 μM), the plate incubated for 5-minutes and the BRET signal measured using a PheraStar FS plate reader (BMG Labtech; data acquisition software version 5.41; MARS analysis software version 3.32) with a 450 ± 30 nm and >550 nm long pass filters.
as §2

[3] = molecular target: HiBit-IL23R and LgBit-IL12Rβ1 (Homo sapiens, UniProt Q5VWK5); conditions: 10 μM P630
Source text: Finally, we utilised a NanoBiT BRET system in which a complemented luciferase with fragments bound to both receptor subunits (Fig. 3) can be used as a BRET donor to measure interactions with binary receptor complexes.
Data in b are mean ± SEM from three independent experiments. In each individual experiment, triplicate determinations were made for total binding and duplicate or triplicate determinations made for non-specific binding. Data in c are the mean values obtained in five independent experiments, each conducted with six replicates. […] Data in d are the mean ± SEM from five (NL-IL23R and NL-23R + IL12Rβ1) or three (HiBit-IL23R + LgBit-IL12Rβ1) independent experiments. Source data are provided as a Source Data file.

T1 sequence (Q5VWK5 24-629, other chains not shown): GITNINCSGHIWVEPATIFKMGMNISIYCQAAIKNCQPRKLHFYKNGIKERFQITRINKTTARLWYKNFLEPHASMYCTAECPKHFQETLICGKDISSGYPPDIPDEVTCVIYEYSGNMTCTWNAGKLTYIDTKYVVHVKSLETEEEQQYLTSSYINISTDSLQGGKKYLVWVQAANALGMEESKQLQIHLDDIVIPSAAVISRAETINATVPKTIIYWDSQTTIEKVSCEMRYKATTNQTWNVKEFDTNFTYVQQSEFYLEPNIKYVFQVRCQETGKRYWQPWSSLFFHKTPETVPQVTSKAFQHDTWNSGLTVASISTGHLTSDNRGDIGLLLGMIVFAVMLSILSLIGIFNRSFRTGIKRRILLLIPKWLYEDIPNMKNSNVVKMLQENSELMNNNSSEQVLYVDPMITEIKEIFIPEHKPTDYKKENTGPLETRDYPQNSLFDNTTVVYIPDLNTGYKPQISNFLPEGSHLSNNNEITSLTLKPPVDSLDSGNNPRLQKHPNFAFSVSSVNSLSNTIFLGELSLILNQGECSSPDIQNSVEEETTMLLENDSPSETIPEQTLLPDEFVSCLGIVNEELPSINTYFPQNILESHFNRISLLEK
Sequence of HiBit-IL23R and LgBit-IL12Rβ1 (Q5VWK5 24-629, other chains not shown): as above

**Q.** What does the source list for `COc1ccc(C[C@H](NC(=O)[C@H]2NC(=O)[C@H](CCC(N)=O)NC(=O)[C@H](Cc3c[nH]c4ccccc34)NC(=O)[C@H]([C@@H](C)O)NC(=O)[C@H](CC(N)=O)NC(=O)[C@@H](NC(C)=O)C(C)(C)SSC2(C)C)C(=O)N[C@@H](Cc2ccc3ccccc3c2)C(=O)NC(C)(C)C(=O)N[C@@H](CCC(=O)O)C(=O)N[C@@H](CC(N)=O)C(=O)N[C@@H](CC(N)=O)C(N)=O)cc1` [P630]?
**A.** Inhibition of IL23-TMR binding (Mean) ([1]; [P630] -5.09151 logM): 84.0625; Inhibition of IL23-TMR binding (Mean) ([1]; [P630] -5.56864 logM): 77.8076; Inhibition of IL23-TMR binding (Mean) ([1]; [P630] -6.04576 logM): 62.3503; Inhibition of IL23-TMR binding (Mean) ([1]; [P630] -6.52288 logM): 55.1992; Inhibition of IL23-TMR binding (Mean) ([1]; [P630] -7 logM): 30.8209; Inhibition of IL23-TMR binding (Mean) ([1]; [P630] -7.47712 logM): 11.8559; Inhibition of IL23-TMR binding (Mean) ([1]; [P630] -7.95424 logM): 6.902; Inhibition of IL23-TMR binding (Mean) ([1]; [P630] -8.90849 logM): 4.004; Inhibition of IL23-TMR binding (Mean) ([1]; [P630] -9.38561 logM): -5.834; Inhibition of IL23-TMR binding (Mean) ([1]; [P630] -9.86273 logM): 10.7231; Displacement of 75 nM P630-TMR (Mean) ([2]; [P630] -4.69897 logM): 100.016; Displacement of 75 nM P630-TMR (Mean) ([2]; [P630] -5.69897 logM): 98.9078; Displacement of 75 nM P630-TMR (Mean) ([2]; [P630] -6.69897 logM): 89.0568; Displacement of 75 nM P630-TMR (Mean) ([2]; [P630] -7.69897 logM): 51.2574; Displacement of 75 nM P630-TMR (Mean) ([2]; [P630] -8.69897 logM): 11.835; Displacement of 75 nM P630-TMR (Mean) ([2]; [P630] -9.69897 logM): -0.3727; Displacement of 75 nM P630-TMR (Mean) ([2]; [P630] -10.699 logM): 3.757; Displacement of 75 nM P630-TMR (Mean) ([2]; [P630] -11.699 logM): 1.217; Effect on receptor dimerisation (NanoLuc complementation) [3]: did not affect receptor dimerisation
